Results on two molecules are retold here after paper PMC10113987, “A tool for nuclear imaging of the SARS-CoV-2 entry receptor: molecular model and preclinical development of ACE2-selective radiopeptides” (EJNMMI Research, 2023).

Read-outs that look alike come from different tables or passages of the source. Positions of bridges follow the written chain, without caps; N, C: chain ends. Residues, ends and D or L forms follow the SMILES beside them. *: point of attachment. HBEDCC = O=C(O)CCc1ccc(O)c(CN(CCN(CC(=O)O)Cc2cc(CCC(=O)*)ccc2O)CC(=O)O)c1 Some results are limits rather than exact numbers.

The nature of series [1]: In vitro stability in mouse blood plasma (TLC). The class given is in vitro ADME. To be noted: 37 °C. The procedure: (§1) The ^67Ga-labeled DX600-radiopeptides (20 MBq/nmol) were incubated in human and mouse plasma (10 MBq/200 µL), respectively, at 37 °C. Aliquots were taken at variable time points up to 24 h for analysis using reversed phase thin layer chromatography (TLC) with citrate buffer (0.1 M, pH 5.5) as a mobile phase. Images of the TLC plates were obtained using a storage phosphor system (Cyclone Plus, PerkinElmer) and quantified using the OptiQuant software (version 5.0, Bright Instrument Co Ltd., PerkinElmer™) (Supplementary Information).
(§2) The radiopeptides were prepared and TLC experiments were performed immediately after radiolabeling by applying the diluted radiopeptides in saline (1 µL; ~0.05 MBq) and [^67Ga]GaCl3 solution (1 µL; ~0.05 MBq) on the TLC plates. The radiopeptides were incubated in mouse or human plasma (10 MBq/200 µL) at 37° C. TLC was performed with an aliquot of the plasma samples at the given timepoints (30 min, 1 h, 3 h and 24 h). The TLC plates were exposed to a phosphor screen followed by development using a storage phosphor system (Cyclone Plus, PerkinElmer). The quantification of the signals was carried out using the OptiQuant software (version 5.0, Bright Instrument Co Ltd., PerkinElmer^TM). The obtained chromatograms were analyzed by determination of the peak area of the radiolabeled peptide, the released gallium-67 as well as degradation products of unknown structure. The quantity of the intact product was expressed as percentage of the sum of integrated peak areas of the entire chromatogram.

The nature of series [2]: In vitro stability in human blood plasma (TLC). The class given is in vitro ADME. To be noted: 37 °C, whole incubation period of 24 h. The method, then: as §1, §2
Series [3] concerns HEK-ACE2/HEK-ACE-xenografted mice. The series is described as follows: SPECT/CT imaging and quantification of retained activity in HEK-ACE2/HEK-ACE xenografted mice. The class given is in vivo, mouse. The following applies: SPECT/CT quantification, non-decay-corrected. The method, then:
(§3) All applicable international, national, and/or institutional guidelines for the care and use of animals were followed. In particular, all animal experiments were carried out according to the guidelines of the Swiss Regulations for Animal Welfare. Preclinical studies have been ethically approved by the Cantonal Committee of Animal Experimentation and permitted by the responsible cantonal authorities (License N° 75743). Five-week-old female CD1/nude mice and female immunocompetent FVB mice were obtained from Charles River Laboratories (Sulzfeld, Germany) and fed with standard rodent chow ad libitum. CD1/nude were subcutaneously inoculated with HEK-ACE2 cells (6–8 × 10^6 cells in 100 µL PBS) on the right shoulder and approximately one week later with HEK-ACE (4 × 10^6 cells in 100 µL PBS) on the left shoulder. Imaging and biodistribution studies were performed 2–4 weeks later when the xenografts reached a size of 100–300 mm^3.
SPECT/CT imaging was performed using a four-head, multiplexing, multipinhole small-animal SPECT camera (NanoSPECT/CT™, Mediso Medical Imaging Systems, Budapest, Hungary). Each head was outfitted with a tungsten-based aperture of nine 1.4 mm-diameter pinholes and a thickness of 10 mm. CT scans of 7.5 min duration were followed by SPECT scans of ~ 50 min performed 1 h, 3 h and 24 h after injection of the respective radiopeptide (10 MBq, 0.5 nmol, 100 μL), diluted in NaCl 0.9% containing 0.05% BSA. During the scan, mice were anesthetized with a mixture of isoflurane and oxygen. The images were acquired using Nucline software (version 1.02, Mediso Ltd., Budapest, Hungary). The real-time CT reconstruction used a cone-beam-filtered backprojection. The reconstruction of SPECT data was performed with the HiSPECT software (version 1.4.3049, Scivis GmbH, Göttingen, Germany) using γ-energies of 93.20 keV (± 10%), 184.60 keV (± 10%) and 300.00 keV (± 10%) for gallium-67. All images were prepared using the VivoQuant post-processing software (version 3.0, inviCRO Imaging Services and Software, Boston, US). A Gauss post-reconstruction filter (full width at half maximum, 1 mm) was applied, and the scale of activity for gallium-67 was set as indicated on the SPECT/CT images. In order to estimate the wash-out of the DX600-based radiopeptides from the HEK-ACE2 xenografts and kidneys over time, the absolute amount of activity was determined in these tissues using the VivoQuant quantification tool. The accumulated activity (non-decay-corrected value in MBq) in the xenografts and kidneys, respectively, obtained at the 1 h p.i. timepoint was set as 100%. The percentage of activity retained in these tissues was determined at 3 h and 24 h p.i. based on the absolute activity determined at these timepoints.

The subject of series [4] is FVB mice. The series is described as follows: In vivo stability in immunocompetent FVB mice (TLC of blood plasma, urine, kidneys). To be noted: 1 h p.i., fraction of accumulated activity. On the set-up: species or system mouse. The procedure:
In order to investigate the stability of the radiopeptides, the ^67Ga-labeled DX600 peptides (20 MBq/nmol) were tested in immunocompetent FVB mice (10 MBq in 100 μL per mouse). Before sacrificing, blood was collected from each mouse 1 h after injection of the radiopeptides. After centrifugation, the blood plasma was analyzed using reversed phase TLC with citrate buffer (0.1 M, pH 5.5) as a mobile phase. The kidneys were collected and processed to investigate the presence of intact radiopeptides and potential metabolites using the same TLC system. The analysis of the chromatograms was performed as described for the in vitro plasma stability (Additional file 1).
Methods: Immunocompetent FVB mice were injected with the DX600-based radiopeptides (n=2). One hour later, urine was collected and blood was sampled from the retrobulbar vein followed by centrifugation (10 min, 200 rcf). A drop of urine and blood plasma was analyzed using the TLC method described for in vitro stability experiments above (reversed phase as stationary phase and citrate buffer pH 5.5 as mobile phase). The data were also confirmed using normal phase TLC. Kidneys of mice were collected, cut into small pieces, homogenized in 200 μL buffer solution (ice-cold methanol containing 0.025% NH4OH) and centrifuged (5 min, 2300 rcf, 4° C) as described by Boss et al.. An aliquot of the supernatant of each sample was developed using the same TLC method as for urine and blood plasma samples. The TLC plates were exposed to a phosphor screen which was afterwards read using a storage phosphor system (Cyclone Plus, PerkinElmer). The quantification of the signals was carried out using the OptiQuant software (version 5.0, Bright Instrument Co Ltd., PerkinElmer^TM). The obtained chromatograms were analyzed by determination of the peak area of the radiolabeled peptide, the released gallium-67 as well as degradation products of unknown structure. The quantity of the intact product was expressed as percentage of the sum of integrated peak areas of the entire chromatogram.

The subject of series [5] is HEK-ACE2/HEK-ACE-xenografted mice. The experiment in a line: Biodistribution in HEK-ACE2/HEK-ACE xenografted mice. The class given is in vivo, mouse. The procedure:
as §3
Biodistribution studies in xenograft-bearing mice were performed 2–4 weeks after cell inoculation. Mice were intravenously injected with [^67Ga]Ga-DOTA-DX600, [^67Ga]Ga-NODAGA-DX600, [^67Ga]Ga-HBED-CC-DX600 or [^67Ga]Ga-DOTA-BPP9a (3 MBq, 0.5 nmol, 100 µL) diluted in NaCl 0.9% containing 0.05% BSA. The mice were sacrificed 3 h after administration of the radiopeptides. Selected tissues and organs were collected, weighed and counted using a γ-counter. The results were listed as a percentage of the injected activity per gram of tissue mass (% IA/g), using counts of a defined volume of the original injection solution measured simultaneously, resulting in decay-corrected values. Statistical analysis was performed by applying a one‐way ANOVA test with a Tukey’s multiple comparisons post‐test (GraphPad Prism software, version 8.3.1).

On the set-up of series [6]: method as in doi:10.1016/0020-1693(94)04012-5. The following applies: cited from earlier work.
[7] abbreviates: 3 h after i.v. injection, decay-corrected, n = 3.

As for `CC(=O)N[C@@H](CCCCNC(=O)CCc1ccc(O)c(CN(CCN(CC(=O)O)Cc2cc(CCC(=O)O)ccc2O)CC(=O)O)c1)C(=O)NCC(=O)N[C@@H](CC(=O)O)C(=O)N[C@@H](Cc1ccc(O)cc1)C(=O)N[C@@H](CO)C(=O)N[C@@H](Cc1c[nH]cn1)C(=O)N[C@H]1CSSC[C@@H](C(=O)N[C@H](C(=O)N[C@@H](Cc2ccc(O)cc2)C(=O)N2CCC[C@H]2C(=O)N[C@@H](CC(=O)O)C(=O)N2CCC[C@H]2C(=O)N[C@@H](CCC(=O)O)C(=O)NCC(=O)NCC(=O)NCC(N)=O)[C@@H](C)O)NC(=O)[C@H](CCCCN)NC(=O)[C@H](Cc2c[nH]c3ccccc23)NC(=O)[C@H](Cc2c[nH]c3ccccc23)NC(=O)[C@@H]2CCCN2C(=O)[C@H](Cc2ccc(O)cc2)NC(=O)[C@H](Cc2ccc(O)cc2)NC(=O)[C@H](CCCNC(=N)N)NC(=O)[C@H](CC(C)C)NC(=O)[C@@H]2CCCN2C(=O)[C@H](CO)NC1=O` [[^67Ga]Ga-HBED-CC-DX600, metal not drawn] (Ac-K(HBEDCC)GDYSHCSPLRYYPWWKCTYPDPEGGG-NH2; disulfide 7-18), the “Intact radiopeptide in mouse blood plasma” value in series [1] (3 h) stood at 87 ± 2%. Besides, in series [1] (24 h), the “Intact radiopeptide in mouse blood plasma” value was 29 ± 1%. Further, in series [2], the “Intact radiopeptide in human blood plasma” value is recorded as greater than 99%. Further, the “Activity retained in the kidneys relative to the 1 h p.i.-timepoint” value in series [3] (3 h p.i.) came to 30%. In addition, the “Activity retained in the kidneys relative to the 1 h p.i.-timepoint” value in series [3] (24 h p.i.) is on record as less than 1%. Besides, in series [4], the “Intact radiopeptide in kidney homogenates” value was greater than 92% and the “Radiometabolites in kidney homogenates” value is ~ 7.5%. Moreover, in series [5] (setting [7]), the “Biodistribution: ACE2 xenograft (HEK-ACE2)” value turned out to be 12.3 ± 1.3 % IA/g, the “Biodistribution: ACE xenograft (HEK-ACE)” value is reported as less than 0.5 % IA/g, the “Biodistribution: blood” value is 0.09 ± 0.04 % IA/g and the “Biodistribution: bone” value was 0.05 ± 0.02 % IA/g. Further, in series [5] (setting [7]), the “Biodistribution: heart” value came out at 0.07 ± 0.03 % IA/g, the “Biodistribution: intestines” value came to 0.43 ± 0.31 % IA/g, the “Biodistribution: kidneys (renal retention)” value is given as 7.2 ± 2.2 % IA/g and the “Biodistribution: liver” value came to 0.23 ± 0.16 % IA/g. In addition, in series [5] (setting [7]), the “Biodistribution: lung” value was 0.13 ± 0.05 % IA/g, the “Biodistribution: muscle” value amounted to 0.03 ± 0.02 % IA/g, the “Biodistribution: salivary glands” value is 0.05 ± 0.02 % IA/g and the “Biodistribution: spleen” value is given as 0.06 ± 0.03 % IA/g. Moreover, the “Biodistribution: stomach” value in series [5] (setting [7]) amounted to 0.09 ± 0.03 % IA/g. Besides, the “Biodistribution: ACE xenograft (HEK-ACE)” value in series [5] (3 h after i.v. injection, decay-corrected, n = 3, listed as [^67Ga]Ga-HBED-CC- DX600) turned out to be 0.27 ± 0.33 % IA/g. Further, in series [5] (3 h after injection), the HEK-ACE2 xenograft-to-kidney ratio turned out to be 1.77 ± 0.34.
For `O=C(O)CCc1ccc(O)c(CN(CCN(CC(=O)O)Cc2cc(CCC(=O)O)ccc2O)CC(=O)O)c1` [HBED-CC, 3-(3-((2-((5-(2-carboxyethyl)-2-hydroxyphenyl)methyl-(carboxymethyl)amino)ethyl-(carboxymethyl)amino)methyl)-4-hydroxyphenyl)propanoic acid], the results for the logK of coordination in series [6] (Ga^3+) and in series [6] (Zn^2+) were 38 and 18, respectively.
